Assay results as given in patent US7285555B2, “6-aryl-7-halo-imidazo[1,2-a]pyrimidines as anticancer agents” (Wyeth Holdings Corporation, priority 2003, dated 2007).

What was measured:
KB-V1 cells = test: SRB cytotoxicity test procedure with KB-V1 cells; type: cell-based, human; settings: SRB assay; for Ratio VI/KB: IC50 on KB VI cells/IC50 on KB cells
Excerpt: Human cancer cell lines, unless otherwise noted, are obtained from the American Type Culture Collection (Rockville, Md.). The following drug-sensitive parental cell lines, and their derived drug-resistant counterparts, are obtained from the originators as listed: (a) S1 (parental line from a subclone of human colon carcinoma line LS174T) and derived S1-M1-3.2 (herein called S1-M1) which expresses the MXR drug transporter protein, are provided by Dr. L. Greenberger, Wyeth Research (Rabindran, S. K., He, H., Singh, M., Brown, E., Collins, K. I., Annable, T., and Greenberger, L. M. Reversal of a novel multidrug resistance mechanism in human colon carcinoma cells by fumitremorgin C. Cancer Res., 58: 5850-5858,1998); (b) parental HL-60 human promyelocytic leukemia line and derived HL-60/ADR, which expresses the MRP1 drug transporter protein, are provided by Dr. M. Center, University of Kansas (McGrath, T., and Center, M. S. Adriamycin resistance in HL60 cells in the absence of detectable P-glycoprotein. Biochem. Biophys. […] J. Biol. Chem., 261: 7762-7770, 1986) via Dr. L. Greenberger, Wyeth Research.
The SRB standard cytotoxicity assay is done according to previously reported methods (Discafani, C. M., Carroll, M. L., Floyd Jr., M. B. F., Hollander, I. J., Husain, Z., Johnson, B. D., Kitchen, D., May, M. K., Malo, M. S., Minnick Jr., A. A., Nilakantan, R., Shen, R., Wang Y-F., Wissner, A., Greenberger, L. M. Irreversible inhibition of epidermal growth factor receptor tyrosine kinase with in vivo activity by N-[4-[3-bromophenyl)amino]-6-quinaxolinyl]-2-butynamide (CL-387,785). Biochem. Pharmacol., 57: 917-925, 1999). Briefly, cells are plated in 100 μL of medium in 96-well flat-bottom microtiter plates in the morning of day 1 and allowed to adhere to the plates for 2-6 hr. Compounds are serially diluted into medium as 2× stocks and 100 μL of these stocks are added to cells in duplicate. Compounds are incubated with cells for 3 days. At the end of the incubation period the sulforhodamine B (SRB) assay, which measures protein content as an assessment of cell survival, is performed as described previously (Skehan, P., Storeng, R., Scudiero, D., Monks, A., McMahon, J., Vistica, D., Warren, J. T., Bokesch, H., Kenney, S., Boyd, M. R. New calorimetric cytotoxicity assay for anticancer-drug screening. J. Natl. Cancer Inst., 82:1107-1112, 1990) with some modifications. Medium is gently decanted from plates and replaced with 200 μL per well of cold serum-free medium containing a final concentration of 10% trichloroacetic acid. The plates are incubated for 1 hr at 40, washed 5 times in cold distilled water, and air-dried overnight. The fixed cells are stained for 10 min with 80 μL per well of 0.04% SRB solution prepared in 1% glacial acetic acid. Staining solution is decanted, plates are washed 5 times in 1% glacial acetic acid, and then air-dried until completely dry. Stained cell product is dissolved in 150 μL per well of 10 mM Trizma Base with shaking for 20 minutes. Absorbance is read on a Victor V multi-label plate reader (Perkin Elmer, Gaithersburg, Md.).
The KB lines express different amounts of the P-glycoprotein (MDR1) membrane pump which produces resistance to the action of many cytotoxic compounds, including paclitaxel and vincristine. The parental KB line expresses no P-glycoprotein, KB-8-5 expresses moderate levels of the protein, and KB-V1 expresses very high levels.

KB cells = test: SRB cytotoxicity test procedure with KB cells; type: cell-based; settings: Homo sapiens, SRB assay, means of 2 independent experiments
Excerpt: Human cancer cell lines, unless otherwise noted, are obtained from the American Type Culture Collection (Rockville, Md.). […]
The SRB standard cytotoxicity assay is done according to previously reported methods (Discafani, C. M., Carroll, M. L., Floyd Jr., M. B. F., Hollander, I. J., Husain, Z., Johnson, B. D., Kitchen, D., May, M. K., Malo, M. S., Minnick Jr., A. A., Nilakantan, R., Shen, R., Wang Y-F., Wissner, A., Greenberger, L. M. Irreversible inhibition of epidermal growth factor receptor tyrosine kinase with in vivo activity by N-[4-[3-bromophenyl)amino]-6-quinaxolinyl]-2-butynamide (CL-387,785). […] Absorbance is read on a Victor V multi-label plate reader (Perkin Elmer, Gaithersburg, Md.). […]

**Q.** With `CC(=O)O[C@H]1C(=O)[C@@]2(C)[C@H]([C@H](OC(=O)c3ccccc3)[C@]3(O)C[C@H](OC(=O)[C@H](O)[C@@H](NC(=O)c4ccccc4)c4ccccc4)C(C)=C1C3(C)C)[C@]1(OC(C)=O)CO[C@@H]1C[C@@H]2O` [Paclitaxel, reference compound] as the compound, how does the IC50 (KB-V1 cells; Homo sapiens, KB-V1, KB VI cells, means of 2 independent experiments) read?
**A.** > 3000 nM

**Q.** What about the “Ratio VI/KB” value (KB-V1 cells) of the same compound?
**A.** >1360

**Q.** What about the “Ratio VI/KB” value (KB-V1 cells; listed as paclitaxel) of the same compound?
**A.** > 1,360

**Q.** What about the IC50 (KB cells) of the same compound?
**A.** 2.2 nM
